Experimental data published in PubChem BioAssay (NCI).
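The concentration for 50% growth inhibition is given as GI50. The concentration for full growth arrest is given as TGI.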

Tests used:
Assay in all cases: DTP human tumour cell line panel, 384-well format
[1] = tested on: M14 melanoma
[2] = tested on: SK-MEL-5 melanoma
[3] = tested on: RPMI-8226 leukemia
[4] = tested on: A549 NSCLC
[5] = tested on: LOX IMVI melanoma
[6] = tested on: SF-295 CNS
[7] = tested on: CAKI-1 renal
[8] = tested on: NCI-H460 NSCLC
[9] = tested on: NCI-H23 lung
[10] = tested on: HL-60(TB) leukemia
[11] = tested on: SNB-19 CNS
[12] = tested on: MDA-MB-435 melanoma
[13] = tested on: UACC-62 melanoma
[14] = tested on: DU-145 prostate
[15] = tested on: UACC-257 melanoma
[16] = tested on: KM12 colon
[17] = tested on: ACHN renal
[18] = tested on: HOP-92 NSCLC
[19] = tested on: HOP-62 NSCLC
[20] = tested on: SK-OV-3 ovarian
[21] = tested on: OVCAR-8 ovarian
[22] = tested on: U251 glioblastoma
[23] = tested on: OVCAR-3 ovarian
[24] = tested on: SK-MEL-28 melanoma
[25] = tested on: PC-3 prostate
[26] = tested on: SN12C renal
[27] = tested on: K-562 leukemia
[28] = tested on: IGROV1 ovarian
[29] = tested on: NCI-H226 lung
[30] = tested on: NCI-H322M lung
[31] = tested on: SR leukemia
[32] = tested on: MOLT-4 leukemia
[33] = tested on: CCRF-CEM leukemia
[34] = tested on: BT-549 breast
[35] = tested on: RXF 393 renal
[36] = tested on: MALME-3M melanoma
[37] = tested on: HCT-116 colon
[38] = tested on: MDA-MB-468 breast
[39] = tested on: UO-31 renal
[40] = tested on: OVCAR-5 ovarian
[41] = tested on: TK-10 renal
[42] = tested on: HCC-2998 colon
[43] = tested on: NCI-H522 lung
[44] = tested on: MCF7 breast
[45] = tested on: SK-MEL-2 melanoma
[46] = tested on: NCI/ADR-RES ovarian
[47] = tested on: HT29 colon
[48] = tested on: SW-620 colon
[49] = tested on: MDA-MB-231 breast
[50] = tested on: OVCAR-4 ovarian
[51] = tested on: 786-0 renal
[52] = tested on: T-47D breast
[53] = tested on: A498 renal
[54] = tested on: SF-539 CNS
[55] = tested on: SF-268 CNS
[56] = tested on: COLO 205 colon
[57] = tested on: HCT-15 colon

`C=Cc1c(C)c2cc3nc(cc4[nH]c(cc5nc(cc1[nH]2)C(C)=C5CCC(=O)O)c(CCC(=O)OC)c4C)[C@@]1(C)C3=CC=C(C(=O)OC)[C@H]1C(=O)OC` gave a GI50 [1] of 2280 nM, a TGI [1] of 5230 nM and a GI50 [2] of 1300 nM. The TGI [2] was 2680 nM, the GI50 [3] was 1500 nM and the TGI [3] was 2840 nM. For the same molecule, the GI50 [4] was 1650 nM, the TGI [4] was 4090 nM and the GI50 [5] was 2640 nM. For the same molecule, the TGI [5] was 4810 nM, the GI50 [6] was 1280 nM and the TGI [6] was 2940 nM. For the same molecule, the GI50 [7] was 2850 nM, the TGI [7] was 7690 nM and the GI50 [8] was 1690 nM. The TGI [8] was 3260 nM, the GI50 [9] was 333 nM and the TGI [9] was 1280 nM. The GI50 [10] was 1870 nM, the TGI [10] was 3290 nM and the GI50 [11] was 2760 nM. It also gave a TGI [11] of 9040 nM, a GI50 [12] of 2360 nM and a TGI [12] of 5480 nM. The GI50 [13] was 1880 nM, the TGI [13] was 3630 nM and the GI50 [14] was 2220 nM. The TGI [14] was 5490 nM, the GI50 [15] was 1640 nM and the TGI [15] was 3870 nM. The GI50 [16] was 1760 nM, the TGI [16] was 3660 nM and the GI50 [17] was 2460 nM. For the same molecule, the TGI [17] was 6830 nM, the GI50 [18] was 1920 nM and the TGI [18] was 4320 nM. For the same molecule, the GI50 [19] was 1700 nM, the TGI [19] was 4160 nM and the GI50 [20] was 1920 nM. For the same molecule, the TGI [20] was 4730 nM, the GI50 [21] was 2090 nM and the TGI [21] was 6680 nM. For the same molecule, the GI50 [22] was 1610 nM, the TGI [22] was 3970 nM and the GI50 [23] was 1740 nM. The TGI [23] was 3410 nM, the GI50 [24] was 1980 nM and the TGI [24] was 4250 nM. For the same molecule, the GI50 [25] was 1930 nM, the TGI [25] was 4240 nM and the GI50 [26] was 2880 nM. For the same molecule, the TGI [26] was 9350 nM, the GI50 [27] was 1030 nM and the TGI [27] was 9640 nM. It also gave a GI50 [28] of 1930 nM, a TGI [28] of 4730 nM and a GI50 [29] of 1480 nM. It also gave a TGI [29] of 3360 nM, a GI50 [30] of 1880 nM and a TGI [30] of 4540 nM. The GI50 [31] was 579 nM, the TGI [31] was 1850 nM and the GI50 [32] was 1230 nM. It also gave a TGI [32] of 2490 nM, a GI50 [33] of 1190 nM and a TGI [33] of 2710 nM. The GI50 [34] was 1320 nM, the TGI [34] was 3300 nM and the GI50 [35] was 668 nM. It also gave a TGI [35] of 2560 nM, a GI50 [36] of 1660 nM and a TGI [36] of 3920 nM. It also gave a GI50 [37] of 1280 nM, a TGI [37] of 2770 nM and a GI50 [38] of 750 nM. For the same molecule, the TGI [38] was 2670 nM, the GI50 [39] was 2330 nM and the TGI [39] was 6210 nM. The GI50 [40] was 2490 nM, the TGI [40] was 5930 nM and the GI50 [41] was 2400 nM. It also gave a TGI [41] of 6190 nM, a GI50 [42] of 1540 nM and a TGI [42] of 3110 nM. It also gave a GI50 [43] of 1330 nM, a TGI [43] of 3660 nM and a GI50 [44] of 1940 nM. For the same molecule, the TGI [44] was 5760 nM, the GI50 [45] was 1640 nM and the TGI [45] was 3330 nM. It also gave a GI50 [46] of 1910 nM, a TGI [46] of 4630 nM and a GI50 [47] of 1980 nM. The TGI [47] was 4720 nM, the GI50 [48] was 3220 nM and the TGI [48] was 9290 nM. It also gave a GI50 [49] of 1510 nM, a TGI [49] of 4380 nM and a GI50 [50] of 1250 nM. It also gave a TGI [50] of 3610 nM, a GI50 [51] of 2260 nM and a TGI [51] of 6550 nM. It also gave a GI50 [52] of 999 nM, a TGI [52] of 6820 nM and a GI50 [53] of 1780 nM. It also gave a TGI [53] of 4060 nM, a GI50 [54] of 1650 nM and a TGI [54] of 3220 nM. For the same molecule, the GI50 [55] was 1940 nM, the TGI [55] was 5630 nM and the GI50 [56] was 2450 nM. The TGI [56] was 5950 nM, the GI50 [57] was 1730 nM and the TGI [57] was 3320 nM.
